Columns and labels:
Format in all cases: functional
Parameters in all cases: scale not given: the % may be the effect or the level left
[1] = test system: Rattus norvegicus; test: Analgesic activity inRattus norvegicus albino (rat) assessed as reduction of minimum electric shock-induced pain at 100 mg/kg after 2 hr relative to control
[2] = test system: Rattus norvegicus; test: Analgesic activity inRattus norvegicus albino (rat) assessed as reduction of minimum electric shock-induced pain at 100 mg/kg after 1 hr relative to control
[3] = test system: Rattus norvegicus; test: Anti-inflammatory activity inRattus norvegicus albino (rat) assessed as reduction of cotton pellet-induced dry weight of granuloma at 100 mg/kg, po measured after 7 days relative to control
[4] = test system: Rattus norvegicus; test: Anti-inflammatory activity inRattus norvegicus albino (rat) assessed as reduction of carrageenan-induced paw edema at 100 mg/kg, po administered 1 hr prior to carrageenan challenge measured after 3 hr by mercury plethysmographic analysis relative to control
[5] = test system: Rattus norvegicus; test: Analgesic activity inRattus norvegicus albino (rat) assessed as reduction of minimum electric shock-induced pain at 5 mg/kg after 2 hr relative to control
[6] = test system: Rattus norvegicus; test: Analgesic activity inRattus norvegicus albino (rat) assessed as reduction of minimum electric shock-induced pain at 5 mg/kg after 1 hr relative to control
[7] = test system: Rattus norvegicus; test: Anti-inflammatory activity inRattus norvegicus albino (rat) assessed as reduction of cotton pellet-induced dry weight of granuloma at 5 mg/kg, po measured after 7 days relative to control
[8] = test system: Rattus norvegicus; test: Anti-inflammatory activity inRattus norvegicus albino (rat) assessed as reduction of carrageenan-induced paw edema at 5 mg/kg, po administered 1 hr prior to carrageenan challenge measured after 3 hr by mercury plethysmographic analysis relative to control

Question: For `O=C1OC(c2ccccc2)=N/C1=C/c1nc2ccc(I)cc2c(=O)n1-c1ccc(Cl)cc1`, which Activity [1] is on record?
Answer: Its Activity is 63.3%.

Question: What about the Activity [2] of the same compound?
Answer: Its Activity is 60.9%.

Question: What about the Activity [3] of the same compound?
Answer: Its Activity is 72.6%.

Question: And the Activity [4]?
Answer: Its Activity is 49.6%.

Question: What does the source list for `CCOc1ccccc1-n1c(N)c(C#N)c(-c2nc3ccc(I)cc3c(=O)n2-c2ccc(F)cc2)c(C#N)c1=O`?
Answer: Activity [1]: 53.1%; Activity [2]: 45.1%; Activity [3]: 52.2%; Activity [4]: 20.7%

Question: Which Activity [1] does the source give for `O=c1c2cc(I)ccc2nc(C2CC(c3ccccc3)=NN2)n1-c1ccc(Cl)cc1` (centres undefined) here?
Answer: Its Activity is 59.2%.

Question: What about the Activity [2] of the same compound?
Answer: Its Activity is 55.4%.

Question: What about the Activity [3] of the same compound?
Answer: Its Activity is 71.9%.

Question: What about the Activity [4] of the same compound?
Answer: Its Activity is 50.4%.

Question: How did the Activity [1] turn out when `O=C(/C=C/c1nc2ccc(I)cc2c(=O)n1-c1ccc(F)cc1)c1ccccc1` was run?
Answer: The Activity was 54.1%.

Question: What about the Activity [2] of the same compound?
Answer: Its Activity is 46.9%.

Question: And the Activity [3]?
Answer: Its Activity is 41.8%.

Question: What about the Activity [4] of the same compound?
Answer: The Activity was 28.3%.

Question: Which results are given for `CC(=O)c1c(-c2nc3ccc(I)cc3c(=O)n2-c2ccc(Cl)cc2)[nH][nH]c1=O`?
Answer: Activity [1]: 61.9%; Activity [2]: 47.9%; Activity [3]: 72.2%; Activity [4]: 48.3%

Question: Which Activity [1] does the source give for `Cc1c(/N=C/c2nc3ccc(I)cc3c(=O)n2-c2ccc(F)cc2)c(=O)n(-c2ccccc2)n1C` here?
Answer: Its Activity is 65.6%.

Question: And the Activity [2]?
Answer: The Activity was 64.8%.

Question: And the Activity [3]?
Answer: The Activity was 73.5%.

Question: What about the Activity [4] of the same compound?
Answer: Its Activity is 53.5%.

Question: Which Activity [1] does the source give for `Cc1c(/N=C/c2nc3ccc(I)cc3c(=O)n2-c2ccc(Cl)cc2)c(=O)n(-c2ccccc2)n1C` here?
Answer: Its Activity is 54.2%.

Question: What about the Activity [2] of the same compound?
Answer: Its Activity is 53.7%.

Question: What about the Activity [3] of the same compound?
Answer: The Activity was 60.7%.

Question: What about the Activity [4] of the same compound?
Answer: The Activity was 47.4%.

Question: For `O=C1NC(=S)S/C1=C/c1nc2ccc(I)cc2c(=O)n1-c1ccc(F)cc1`, which Activity [1] is on record?
Answer: The Activity was 61.3%.

Question: What about the Activity [2] of the same compound?
Answer: The Activity was 57.9%.

Question: And the Activity [3]?
Answer: Its Activity is 67.3%.

Question: And the Activity [4]?
Answer: Its Activity is 44.8%.

Question: What does the source list for `O=C(N/N=C/c1nc2ccc(I)cc2c(=O)n1-c1ccc(F)cc1)c1ccncc1`?
Answer: Activity [1]: 64.3%; Activity [2]: 57.1%; Activity [3]: 66.7%; Activity [4]: 45.3%

Question: What does the source list for `CCOc1ccccc1/N=C/c1nc2ccc(I)cc2c(=O)n1-c1ccc(F)cc1`?
Answer: Activity [1]: 56.1%; Activity [2]: 39.3%; Activity [3]: 50.2%; Activity [4]: 38.9%

Question: Which results are given for `Cc1c(N(C)CS(=O)(=O)[O-])c(=O)n(-c2ccccc2)n1C.[Na+]` [DIPYRONE SODIUM]?
Answer: Activity [5]: 85.7%; Activity [6]: 82.9%

Question: With `COc1ccc2c(c1)c(CC(=O)O)c(C)n2C(=O)c1ccc(Cl)cc1` [INDOMETHACIN] as the compound, how does the Activity [7] read?
Answer: Its Activity is 75.2%.

Question: What about the Activity [8] of the same compound?
Answer: The Activity was 78.3%.

— ChEMBL document CHEMBL3045120, “Synthesis, characterization, and evaluation of some novel 4(3H)-quinazolinone derivatives as anti-inflammatory and analgesic agents” (2013)
